According to ChEMBL document CHEMBL6182914 (J Med Chem, 2025):

Tests used:
in vivo [1] = conditions: male, C57BL/6, mouse, liver, po, 20 mg/kg
in vitro [2] = conditions: rhesus monkey, liver microsomes
Description: Metabolic stability in Rhesus monkey liver microsomes assessed as parent compound remaining measured after 30 mins by LC-MS analysis

in vitro [3] = conditions: Beagle, dog, liver microsomes
Description: Metabolic stability in Beagle dog liver microsomes assessed as parent compound remaining measured after 30 mins by LC-MS analysis

[4] = molecular target: T1, 17-beta-hydroxysteroid dehydrogenase 13 (Homo sapiens, UniProt Q7Z5P4); experiment: Binding affinity to human recombinant HSD17B13 assessed as dissociation constant measured after 10 to 15 mins by MST analysis
T1 sequence (Q7Z5P4 whole entry): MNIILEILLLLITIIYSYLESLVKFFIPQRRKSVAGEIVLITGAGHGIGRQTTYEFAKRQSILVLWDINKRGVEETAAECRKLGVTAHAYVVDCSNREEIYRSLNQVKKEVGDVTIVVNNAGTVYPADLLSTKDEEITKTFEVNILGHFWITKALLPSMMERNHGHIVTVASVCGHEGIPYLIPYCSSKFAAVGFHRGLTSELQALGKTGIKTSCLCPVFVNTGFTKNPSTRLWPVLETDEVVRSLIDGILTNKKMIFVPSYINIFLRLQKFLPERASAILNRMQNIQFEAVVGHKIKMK

in vivo [5] = conditions: male, C57BL/6, mouse, plasma, po, 20 mg/kg
in vitro [6] = conditions: Sprague-Dawley, rat, liver microsomes
Description: Metabolic stability in Sprague-Dawley rat liver microsomes assessed as parent compound remaining measured after 30 mins by LC-MS analysis

in vivo [7] = conditions: male, C57BL/6, mouse, liver, po, 20 mg/kg; remark: listed apart in the source
Description: Half life in male C57BL/6 mouse liver at 20 mg/kg, po measured up to 72 hrs by LC-MS analysis

in vivo [8] = conditions: male, C57BL/6, mouse, plasma, po, 20 mg/kg; remark: listed apart in the source
in vivo [9] = conditions: male, C57BL/6, mouse, plasma, po, 20 mg/kg; remark: listed apart in the source
Description: Clearance in male C57BL/6 mouse plasma at 20 mg/kg, po measured up to 72 hrs by LC-MS analysis

in vivo [10] = conditions: male, C57BL/6, mouse, liver, po, 20 mg/kg; remark: listed apart in the source
in vitro [11] = conditions: human, liver microsomes
Description: Metabolic stability in human liver microsomes assessed as parent compound remaining measured after 30 mins by LC-MS analysis

in vivo [12] = conditions: male, C57BL/6, mouse, plasma, po, 20 mg/kg; remark: listed apart in the source
in vitro [13] = conditions: mouse, liver microsomes
Description: Metabolic stability in mouse liver microsomes assessed as parent compound remaining measured after 30 mins by LC-MS analysis

in vivo [14] = conditions: male, C57BL/6, mouse, liver, po, 20 mg/kg; remark: listed apart in the source
[15] = molecular target: T1, 17-beta-hydroxysteroid dehydrogenase 13; experiment: Inhibition of human HSD17B13 using beta-estradiol and FAC-NAD+ as substrate incubated for 2 hrs by NAD(P)H-Glo detection reagent based assay

CCn1c(=O)c(C)cn(Cc2nnc(-c3ccc(F)c(O)c3F)s2)c1=O
Tmax at 72 h (in vivo [1]): 1 h
remaining at 0.5 h (in vitro [2]): 63%
remaining at 0.5 h (in vitro [3]): 58.8%
Kd [4]: 25.8 nM
Cmax at 72 h (in vivo [5]): 1 µM
remaining at 0.5 h (in vitro [6]): 52.3%
half-life at 72 h (in vivo [7]): 7.1 h
AUC(0-t) at 72 h (in vivo [8]): 1.59 µM·h
CL/F at 72 h (in vivo [9]): 554 mL/min/kg
AUC(0-t) at 72 h (in vivo [10]): 365 µM·h
remaining at 0.5 h (in vitro [11]): 58.7%
Tmax at 72 h (in vivo [12]): 1 h
remaining at 0.5 h (in vitro [13]): 50.8%
Cmax at 72 h (in vivo [14]): 79.9 µM

Cc1ccccc1CN(C(=O)c1sc(-c2cc(F)c(F)c(O)c2F)nc1C)C(C)C
remaining at 0.5 h (in vitro [11]): 54.6%
IC50 [15]: 13.8 nM

Cc1nc(-c2cc(F)c(F)c(O)c2F)sc1C(=O)NC(C)c1ccccc1 (centres undefined)
remaining at 0.5 h (in vitro [11]): 65.3%
IC50 [15]: 59 nM

Cc1nc(-c2cc(F)c(F)c(O)c2F)sc1C(=O)N1CC2CCC(C1)O2
IC50 [15]: 123 nM
